According to article PMC5520057, “Modulation of nongenomic activation of PI3K signalling by tetramerization of N-terminally-cleaved RXRα” (Nature Communications, 2017):

What was measured:
RXRα-LBD = biological target: T1, RXRα-LBD (Homo sapiens, UniProt P19793); assay: Non-denaturing gel electrophoresis, oligomeric state of RXRα-LBD; assay type: biochemical; details: purified RXRα-LBD; 9-cis-RA (0.5 μM) and/or K-80003 (20 μM), 3 h at 4 °C
T1 construct: The human RXRα LBD (residues Thr223 to Thr462); made in house; host or cells: Escherichia coli BL21
T1 sequence (P19793 223-462): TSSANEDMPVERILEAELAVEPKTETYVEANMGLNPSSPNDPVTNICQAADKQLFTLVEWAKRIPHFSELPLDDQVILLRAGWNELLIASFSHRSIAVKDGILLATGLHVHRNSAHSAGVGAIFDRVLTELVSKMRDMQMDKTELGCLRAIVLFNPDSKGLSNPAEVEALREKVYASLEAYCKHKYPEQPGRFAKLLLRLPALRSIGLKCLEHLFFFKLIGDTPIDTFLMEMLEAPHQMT
Description: The human RXRα LBD (residues Thr223 to Thr462) cloned as an N-terminal histidine-tagged fusion protein in pET15b expression vector was expressed in Escherichia coli BL21 strain (Stratagene). After sonication, cell extract was incubated with the His60 Ni Superflow resin, and His-tagged RXRα-LBD-resin complexes were washed, eluted and concentrated to 5 mg ml^−1 for subsequent trails. For crystallization experiment, bovine thrombin (Sigma) was used to cleave the His tag from the purified His-tagged RXRα-LBD. The resulting His tag was removed on the Resource-Q column (GE) using 0.1–1 M NaCl gradient and the Tris-Cl pH 8 buffer. RXRα-LDB was further purified using gel filtration on a Superdex 200 2660 column (GE) pre-equilibrated with the 75 mM NaCl, 20 mM Tris-Cl buffer (pH 8).

tRXRα = assay: Subcellular localization of tRXRα, immunostaining; assay type: cell-based; details: MCF-7 cells; K-80003 (5 × 10^−6 M) for 3 h, then TNFα (10 ng ml^−1) for 30 min
Description: (§1) Cells mounted on glass slides or tumour tissue frozen sections (5-μm-thick) were washed with PBS and fixed in 4% paraformaldehyde (PFA) for 15 min and permeabilized with PBS containing 0.1% Triton X-100 for 15 min. Fixed cells or tumour tissues were blocked with 5 mg ml^−1 BSA in PBS for 30 min at room temperature, followed with incubation with primary antibodies for 3 h and secondary antibodies at room temperature for 1 h and co-stained with 4′6′-diamidino-2-phenylindole (DAPI) to visualize nuclei. The images were taken under an LSM-510 confocal laser scanning microscope system (Carl Zeiss).

tRXRα/L433D = assay: Subcellular localization of tRXRα/L433D, immunostaining; assay type: cell-based; details: MCF-7 cells; K-80003 (5 × 10^−6 M) for 3 h, then TNFα (10 ng ml^−1) for 30 min
Description: as §1

MCF-7/tRXRα tumour = assay: MCF-7/tRXRα xenograft in nude mice, tumour growth; assay type: in vivo; details: K-80003 20 mg kg^−1 i.p. daily for 12 days, n=6 in each group
Description: (§2) For nude mice xenograft study, Myc-RXRα and Myc-tRXRα cloned into pcdna3.0 vector were stably transfected into MCF-7 cells, and the resulting stable clones and control clone (2 × 10^6 cells in 100 μl) were injected subcutaneously into nude mice (BALB/c, SPF grade, 16–18 g, 4–5-week old). For drug treatment, mice were intraperitoneally injected (i.p.) daily with K-80003 (20 mg kg^−1) diluted in Tween-80 or vehicle (tween-80). Body weight and tumour size were measured every 2 days. Mice were killed after 12-day drug treatment and the tumours removed for various assessments. For MMTV-PyMT transgenic mouse study, 4-week old female mice of a transgenic mouse on the FVB/N genetic background expressing the PyMT oncogene under the control of MMTV LTR promoter[40] were fed with diet containing with or without K-80003 (100 mg kg^−1) for 4 weeks. Estimation of tumour appearance was performed by palpation once every day. Tumour tissues of left thoracic mammary glands were excised after the treatment. Portion of tissues was used to prepare extracts for western blotting, while the rest was fixed in 4% phosphate-buffered paraformaldehyde, and used for immunohistochemical staining using anti-Ki67 antibody and immunostaining using Δ197 anti-RXRα antibody. All experimentations and animal usage were performed and approved by the Animal Care and Use Committee of Xiamen University.

PyMT mammary tumour = assay: MMTV-PyMT transgenic mice, mammary tumour; assay type: in vivo; details: 4-week old MMTV-PyMT mice; diet with K-80003 (100 mg kg^−1) for 4 weeks
Description: as §2

MMTV-PyMT mammary tumour [1] = assay: MMTV-PyMT tumours, western blotting; assay type: in vivo, MMTV-PyMT mice; details: diet with K-80003 (100 mg kg^−1) for 4 weeks
Description: Proteins or cell lysates were electrophoresed by SDS-PAGE gel and transferred to polyvinylidene difluoride (PVDF) membrane. The membranes were blocked with 5% skimmed milk in TBST (50 mM Tris-HCl (pH 7.4), 150 mM NaCl and 0.1% Tween20) for 1 h, then incubated with primary antibodies and secondary antibodies and detected using ECL system (Thermo). The dilutions of the primary antibodies were anti-RXRα (ΔN197, Santa Cruz) in 1:1,000, anti-PARP (H-250, Santa Cruz) in 1:3,000, anti-p85α (Millipore) in 1:1,000, anti-p-AKT (D9E, Cell Signaling Technology) in 1:1000, anti-AKT1/2/3 (H-136, Santa Cruz) in 1:1,000, anti-β-actin (Sigma) in 1:5,000, anti-c-myc (9E10, Santa Cruz) in 1:3,000, anti-HA (F-7, Santa Cruz) in 1:3,000, anti-Flag (F1804, Sigma) in 1:3,000. Images of all uncropped western blots can be found in Supplementary Figs 10–14.
(§3) For nude mice xenograft study, Myc-RXRα and Myc-tRXRα cloned into pcdna3.0 vector were stably transfected into MCF-7 cells, and the resulting stable clones and control clone (2 × 10^6 cells in 100 μl) were injected subcutaneously into nude mice (BALB/c, SPF grade, 16–18 g, 4–5-week old). For drug treatment, mice were intraperitoneally injected (i.p.) daily with K-80003 (20 mg kg^−1) diluted in Tween-80 or vehicle (tween-80). Body weight and tumour size were measured every 2 days. […]

MMTV-PyMT mammary tumour [2] = assay: MMTV-PyMT tumours, Ki-67 immunostaining; assay type: in vivo, MMTV-PyMT mice; details: diet with K-80003 (100 mg kg^−1) for 4 weeks; Ki-67 positive cells scored from 500 cells
Description: as §2, with “Portion of tissues was used to prepare extracts for western blotting, while the rest was fixed in 4% phosphate-buffered paraformaldehyde, and used for immunohistochemical staining using anti-Ki67 antibody and immunostaining using Δ197 anti-RXRα antibody. All experimentations and animal usage were performed and approved by the Animal Care and Use Committee of Xiamen University.” left out
(a) Expression of tRXRα in MMTV-PyMT mammary tumors analyzed by Western blotting using ΔN197 anti-RXRα antibody.
(b) Tumor sections from MMTV-PyMT mice fed with vehicle or K-80003 were immunostained with anti-Ki-67 antibody. Ki-67 positive cells were scored from 500 cells. […]

RXRα = assay: MMTV-PyMT tumours, RXRα immunostaining; assay type: in vivo, MMTV-PyMT mice; details: diet with K-80003 (100 mg kg^−1) for 4 weeks; Δ197 anti-RXRα antibody
Description: as §1
as §3, with “days. Mice were killed after 12-day drug treatment and the tumours removed for various assessments.” for “days.”

p85α / tRXRα interaction = system: p85α / tRXRα interaction; parameters: method as in PMID 20541701; details: cited from earlier work
PI3K signalling = system: PI3K signalling; parameters: method as in PMID 20541701; details: cited from earlier work

CC1=C(CC(=O)O)c2cc(F)ccc2/C1=C\c1ccc(C(C)C)cc1 [K-80003]
effect on RXRα-LBD oligomeric state (RXRα-LBD): induced an accumulation of tetramers | effect on TNFα-induced cytoplasmic colocalization of tRXRα with p85α (tRXRα): inhibited, resulting in tRXRα nuclear localization | effect on cytoplasmic colocalization of p85α with tRXRα/L433D (tRXRα/L433D): not affected by K-80003 | effect on tRXRα-promoted growth of MCF-7 tumour (MCF-7/tRXRα tumour): suppressed | growth of PyMT mammary tumour (PyMT mammary tumour): potently inhibited the growth of PyMT mammary tumour | PARP cleavage in PyMT tumours (MMTV-PyMT mammary tumour [1]): induction of PARP cleavage | cyclin D expression in PyMT tumours (MMTV-PyMT mammary tumour [1]): inhibition of cyclin D expression | tumour cell proliferation (Ki-67) (MMTV-PyMT mammary tumour [2]): inhibition of tumour cell proliferation | RXRα staining localization in PyMT tumours (RXRα): mainly found in the nucleus | inhibition of tRXRα interaction with p85α (p85α / tRXRα interaction): inhibits its interaction with p85α | inhibition of activation of PI3K signalling (PI3K signalling): inhibits its interaction with p85α and activation of PI3K signalling
